Laboratory results reported in patent publication US20240239854A1, “ANTIMICROBIAL PEPTIDES AND MODIFICATIONS THEREOF” (Donald Danforth Plant Science Center, priority 2022, published 2024).
Converted amounts (≈) assume the structure as drawn. No end group written: not given here.

B1: PD97.1.1: Rubus chingii wild-type defensin SEQ ID NO: 608 with N-terminal alanine, expressed in Pichia pastoris (protein, listed as Rubus chingii)
chain: GACPLVSKRSKTWSGFCGSSNNCNKQCRSWESAQHGACHNTYKTVLGVKVISGRACFCYFCKKHT
modifications: N-terminal alanine

Columns and labels:
Type in all cases: cell-based
[1] = system: Zymoseptoria tritici IPO323
[2] = system: Fusarium graminearum PH-1; conditions: for F. graminearum PH-1 MIC Day1: MIC Day 1, 96-well plate, resazurin cell viability; for MIC, in-vitro antifungal activity against F. graminearum: F. graminearum PH-1, 48 hours
Botrytis cinerea T4 = conditions: for MIC, in-vitro antifungal activity against B. cinerea: 48 hours

Molecule	Z. tritici IPO323 MIC Day 1 [1]	Z. tritici IPO323 MIC Day 7 [1]	Z. tritici IPO323 MIC Day 14 [1]	F. graminearum PH-1 MIC Day1 [2]	B. cinerea T4 MIC Day1 (Botrytis cinerea T4)	MIC, in-vitro antifungal activity against F. graminearum [2]	MIC, in-vitro antifungal activity against B. cinerea (Botrytis cinerea T4)	MIC against Z. tritici on day 1 [1]	MIC against Z. tritici on day 7 [1]	MIC against Z. tritici on day 14 [1]
PD94.1.1: Solanum lycopersicum wild-type defensin SEQ ID NO: 593 with N-terminal alanine, expressed in Pichia pastoris (KLCQYHSETFHGVCVTGNNCNRHCQRENFEGGRCHGIRHYRCVCYRTC; N-terminal alanine; listed as Solanum lycopersicum)	>12 µM	>12 µM	>12 µM	>12 µM	>12 µM	–	–	–	–	–
PD82.1.1: Pinus sylvestris wild-type defensin SEQ ID NO: 538 with N-terminal alanine, expressed in Pichia pastoris (RTCLSKSHRFHGYCVRSSSCKEICQTERFLSGECRHTHLGNRRCFCEKPC; N-terminal alanine added; listed as Pinus sylvestris)	0.625 µM	2 µM	3.5 µM	1.5 µM	1.125 µM	–	–	–	–	–
PD118.1.1: Malus domestica wild-type defensin SEQ ID NO: 697 with N-terminal alanine, expressed in Pichia pastoris (KICEFPSTLFKGLCFSSNNCKHTCRKEQFTRGKCSLLTRTCMCTKKC; N-terminal alanine added; listed as Malus domestica)	1.5 µM	2 µM	3 µM	1.5 µM	1.5 µM	–	–	–	–	–
PD96.1.1: Thlaspi arvense wild-type defensin SEQ ID NO: 603 with N-terminal alanine, expressed in Pichia pastoris (RMCESKSHEFKGFCTKWRICRDVCITEGFTDGGCHGVLRHCVCKKPCLLSN; N-terminal alanine; Thlaspi arvense)	2.5 µM	10 µM	>12 µM	0.75 µM	6 µM	0.75 µM	–	–	–	–
PD104.1.1: Eucalyptus grandis wild-type defensin SEQ ID NO: 637 with N-terminal alanine, expressed in Pichia pastoris (AICKKPSKFFKGACGRDADCEKACDQENWPGGVCVPFLRCECQRSC; cysteine pairing not given here; also: N-terminal alanine added, unclear whether it is the first A of the chain; listed as Eucalyptus grandis)	>12 µM	>12 µM	>12 µM	>12 µM	>12 µM	–	–	–	–	–
PD87.1.1: Raphanus sativus wild-type defensin SEQ ID NO: 560 with N-terminal alanine, expressed in Pichia pastoris (KLCQRPSGTWSGVCGNNNACKNQCIRLEKARHGSCNYVFPAHKCICYFPC; N-terminal alanine; listed as Raphanus sativus)	0.375 µM	1.5 µM	2.5 µM	0.75 µM	0.375 µM	0.75 µM	–	–	–	–
PD125.1.1: wild-type defensin-like protein SEQ ID NO: 728 with N-terminal alanine, expressed in Pichia pastoris (VICPLESKRSKTWSGVCAQSKNCDKQCKTWERAKHGACHATYGKVLGVKACMHAGNK; N-terminal alanine added; listed as Prunus armeniaca)	3 µM	7 µM	9 µM	8 µM	10 µM	–	–	–	–	–
PD81.1.1: Pinus sylvestris wild-type defensin SEQ ID NO: 534 with N-terminal alanine, expressed in Pichia pastoris (RMCKTPSGKFKGYCVSSTNCKNVCRTEGFPTGSCDFHVASRKCYCYKPC; N-terminal alanine added; listed as Pinus sylvestris)	0.5 µM	0.75 µM	3 µM	1.5 µM	1 µM	–	1 µM	–	–	–
C[C@@H]1[C@H](O)[C@@H](C)/C=C/C=C/C=C/C=C/C=C/C=C/C=C/[C@H](O[C@@H]2O[C@H](C)[C@@H](O)[C@H](N)[C@@H]2O)C[C@@H]2O[C@](O)(C[C@@H](O)C[C@@H](O)[C@H](O)CC[C@@H](O)C[C@@H](O)CC(=O)O[C@H]1C)C[C@H](O)[C@H]2C(=O)O [Amphotericin-B, reference compound]	0.84 µM	5.44 µM	8.92 µM	6 µM	3 µM	6 µM (≈ 5.54 µg/mL)	3 µM (≈ 2.77 µg/mL)	0.84 µM (≈ 0.776 µg/mL)	5.44 µM (≈ 5.03 µg/mL)	8.92 µM (≈ 8.24 µg/mL)
PD117.1.1: Manihot esculenta wild-type defensin SEQ ID NO: 692 with N-terminal alanine, expressed in Pichia pastoris (RICVKPEPLAHCTETICTQFCIRKYGPPPGTVGKCNLPPGFCTCYHNC; N-terminal alanine added; listed as Manihot esculenta)	>12 µM	>12 µM	>12 µM	>12 µM	>12 µM	–	–	–	–	–
PD84.1.1: Striga asiatica wild-type defensin SEQ ID NO: 546 with N-terminal alanine, expressed in Pichia pastoris (KICEYKSERFWGVCLSDIKCADVCKDESFESGDCQGLRRRCMCYNHC; N-terminal alanine added; listed as Striga asiatica)	>12 µM	>12 µM	>12 µM	>12 µM	>12 µM	–	–	–	–	–
PD119.1.1: Setaria italica wild-type defensin SEQ ID NO: 702 with N-terminal alanine, expressed in Pichia pastoris (RHCLSQSHTFKGLCFSSENCASVCKSEKFPGGQCQMHGASRKCFCKVVC; N-terminal alanine added; listed as Setaria italica)	2.5 µM	6 µM	12 µM	1.5 µM	4.5 µM	–	–	–	–	–
PD115.1.1: Lupinus albus wild-type defensin SEQ ID NO: 683 with N-terminal alanine, expressed in Pichia pastoris (NNCKYESNKFHGVCLSDTNCESVCQTEGFPFGKCDGVLPRTCVCKKPC; N-terminal alanine added; listed as Lupinus albus)	>12 µM	>12 µM	>12 µM	>12 µM	>12 µM	–	–	–	–	–
PD121.1.1: Setaria italica wild-type defensin SEQ ID NO: 711 with N-terminal alanine, expressed in Pichia pastoris (RHCLSQSHHFKGLCLSSSNCANVCRVERFPDGECQTTAGTRKCFCKRIC; N-terminal alanine added; listed as Setaria italica)	1 µM	4 µM	5 µM	1.5 µM	2 µM	–	–	–	–	–
PD89.1.2: Crambe maritima wild-type defensin SEQ ID NO: 569 with N-terminal alanine, expressed in Pichia pastoris (KLCRKPSGTWSGLCANSDSCRKQCINLEKAKDGSCKYKFPAHKCFCYY; N-terminal alanine; listed as Crambe maritima)	1.5 µM	6 µM	12 µM	12 µM	2.5 µM	–	–	–	–	–
PD100.1.1: Prunus armeniaca wild-type defensin SEQ ID NO: 620 with N-terminal alanine, expressed in Pichia pastoris (QRGCKQASKSMTTCTAHPECDKKCKGEKAKMGLCRADGPKGKKCWCYMC; N-terminal alanine added; listed as Prunus armeniaca)	1 µM	4 µM	8 µM	6 µM	6 µM	–	–	–	–	–
B1	0.75 µM	1.5 µM	1.5 µM	1.5 µM	1.25 µM	–	–	0.75 µM	1.5 µM	1.5 µM
